Measurements reported in PubChem BioAssay (NCI).
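These data come from cells grown in 96-well plates and exposed to compound for 48 hours at five concentrations. GI50 marks 50% less growth. TGI is the concentration that stops growth completely.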

Experiments:
Assay in all cases: NCI anticancer screen, dose series, 48 h
SR leukemia = test system: SR leukemia
MALME-3M melanoma = test system: MALME-3M melanoma
TK-10 renal = test system: TK-10 renal
MOLT-4 leukemia = test system: MOLT-4 leukemia
NCI-H460 lung = test system: NCI-H460 lung
CCRF-CEM leukemia = test system: CCRF-CEM leukemia
KM12 colon = test system: KM12 colon
IGROV1 ovarian = test system: IGROV1 ovarian
OVCAR-3 ovarian = test system: OVCAR-3 ovarian
UACC-257 melanoma = test system: UACC-257 melanoma

Row | Structure (SMILES) | TGI (SR leukemia) | TGI (MALME-3M melanoma) | TGI (TK-10 renal) | TGI (MOLT-4 leukemia) | TGI (NCI-H460 lung) | TGI (CCRF-CEM leukemia) | TGI (KM12 colon) | TGI (IGROV1 ovarian) | TGI (OVCAR-3 ovarian) | TGI (UACC-257 melanoma) | GI50 (SR leukemia) | GI50 (MALME-3M melanoma) | GI50 (MOLT-4 leukemia) | GI50 (NCI-H460 lung) | GI50 (CCRF-CEM leukemia) | GI50 (KM12 colon) | GI50 (IGROV1 ovarian) | GI50 (OVCAR-3 ovarian) | GI50 (UACC-257 melanoma) | GI50 (TK-10 renal)
1 | CCOC(=O)C1=C(Nc2cccc3ccccc23)OC/C1=N\NC(=O)c1ccccc1O | 41.4 µM | > 100 µM | > 100 µM | 53.5 µM | > 71.4 µM | 37.1 µM | > 100 µM | 29.8 µM | 60 µM | 77.1 µM |  |  |  |  |  |  |  |  |  | 
2 | CCCOc1nc(SCCC)nc2c1cnn2-c1ccccc1 | > 100 µM | > 100 µM |  | > 100 µM | > 100 µM | > 100 µM | > 100 µM | > 100 µM | > 100 µM | > 100 µM | 32.2 µM | > 100 µM | > 100 µM | > 100 µM | 56.7 µM | 93.1 µM | > 100 µM | > 100 µM | > 100 µM | 
3 | COC(=O)C1=C(C(=O)OC)SC(=C(N=Nc2ccccc2)c2ccccc2)S1 | > 100 µM | > 100 µM | > 100 µM | > 100 µM | > 100 µM | > 100 µM | > 100 µM | > 100 µM | > 100 µM | > 100 µM |  |  |  |  |  |  |  |  |  | 
4 | O=C(COc1cccc(/C=C2\COc3ccc(Cl)cc3C2=O)c1)c1ccc(Cl)cc1 | 5.11 µM | 34.2 µM | 28.7 µM | 24.3 µM | 30.1 µM | 49 µM | 11.2 µM | 3.7 µM | 19.8 µM | 33.4 µM | 1.71 µM | 17.9 µM | 5.95 µM | 15.8 µM | 4.72 µM | 2.79 µM | 0.54 µM | 7.71 µM | 18.5 µM | 15.1 µM
5 | O=c1[nH]c(-c2ccc(-c3nc4cc([N+](=O)[O-])ccc4c(=O)[nH]3)cc2)nc2cc([N+](=O)[O-])ccc12 | > 100 µM | > 100 µM | > 100 µM | > 100 µM | > 100 µM | > 100 µM | > 100 µM | > 100 µM | > 100 µM | > 100 µM |  |  |  |  |  |  |  |  |  | 
6 | O=C(OCCBr)c1ccc(Cl)c([N+](=O)[O-])c1 | 31.5 µM | 43.4 µM | > 86.8 µM | 55.3 µM | 33.5 µM | 38.7 µM | 10.9 µM | 37.6 µM | 6.43 µM | 22.9 µM | 7.9 µM | 19.1 µM | 23.7 µM | 14.9 µM | 15.6 µM | 5 µM | 16.5 µM | 2.69 µM | 9.02 µM | > 51.1 µM
7 | Nc1n[nH]c2cccc(C#Cc3cccc(C(=O)Nc4cc(CN5CCOCC5)cc(C(F)(F)F)c4)c3)c12 | 22.9 µM | 9.88 µM | 27.5 µM | 13.3 µM | 16.9 µM | 20.3 µM | 14.7 µM | 11.7 µM | 31.3 µM | 18.1 µM | 2.69 µM | 1.63 µM | 2.76 µM | 4.11 µM | 3.68 µM | 3.43 µM | 3.23 µM | 7.41 µM | 4.63 µM | 11.4 µM
8 | C/C=C/[C@@H]1OC(=O)C2=C[C@@H](O)[C@@H](/C=C/C)O[C@H]21 | > 100 µM | 5.56 µM | 7.04 µM | > 19.7 µM | 63.7 µM | 5.77 µM | 38.9 µM | > 56 µM | 13.1 µM | 33 µM | 16.8 µM | 1.73 µM | 1.73 µM | 25.6 µM | 0.271 µM | 16.9 µM | 7.62 µM | 2.45 µM | 17.7 µM | 1.96 µM
9 | COc1cc(C2CC(c3ccc(N(C)C)cc3)=NN2C(C)=O)cc(OC)c1OC (stereo not given) | > 100 µM | > 100 µM | > 100 µM | > 100 µM | > 100 µM | > 100 µM | > 52.8 µM | > 100 µM | 1.84 µM | > 100 µM | 2.39 µM | > 100 µM | 12.8 µM | 1.41 µM | 8.17 µM | 0.933 µM | 2.65 µM | 0.352 µM | > 69.5 µM | 14.3 µM
10 | COCCNc1cc(NC(=O)N2CCCc3cc(CN4CCN(C)CC4=O)c(C=O)nc32)ncc1C#N | > 50 µM | > 50 µM | > 50 µM | > 50 µM | > 50 µM | > 50 µM | > 50 µM | > 50 µM | > 50 µM | > 50 µM | > 50 µM | > 50 µM | > 50 µM | > 50 µM | > 50 µM | > 50 µM | > 50 µM | > 50 µM | > 50 µM | > 50 µM
11 | COc1ccc(-c2nn(-c3cccc(Cl)c3)cc2-c2cc(-c3ccccc3)nc(N)n2)cc1 | 5.21 µM | 31.8 µM | 24.1 µM | 5.61 µM |  | 6.63 µM | 4.39 µM | 16.5 µM | 15.3 µM | 8.51 µM | 2.03 µM | 8.95 µM | 2.03 µM |  | 2.13 µM | 2.05 µM | 4.2 µM | 4.53 µM | 2.58 µM | 11.8 µM
12 | CCN1C(=O)N(CC)C2C1NN=c1s/c(=C\c3cc4ccccc4[nH]3)c(=O)n12 (stereo not given) |  | 36.9 µM | 32.3 µM | > 100 µM | 14.8 µM | > 100 µM | > 58.6 µM | 12.2 µM |  | > 100 µM | < 0.01 µM | 0.0388 µM | < 0.018 µM | 0.0331 µM | 0.0208 µM | < 0.012 µM | 0.0139 µM |  | 12.2 µM | 2.11 µM
13 | O=C(Nc1nc(=S)c2c(ncn2CCO)[nH]1)c1ccccc1 | > 100 µM | > 100 µM | > 100 µM |  | > 100 µM | > 100 µM | > 100 µM | > 100 µM | > 100 µM | > 100 µM |  |  |  |  |  |  |  |  |  | 
14 | CCCC(Sc1ccccc1)P(=O)(c1ccccc1)c1ccccc1 (stereo not given) | 66.4 µM |  | > 100 µM | 52.2 µM | > 100 µM | > 100 µM | > 100 µM |  | > 100 µM | > 100 µM |  |  |  |  |  |  |  |  |  | 
